Test results taken from patent publication US7935680B2, “Methods for modulating the axonal growth of central nervous system neurons” (Children's Medical Center Corporation, priority 1997, dated 2011).
Entries after “also recorded” stand apart in the source; their conditions may differ.

Experiments:
Type in all cases: cell-based
[1] = test system: goldfish retinal ganglion cells; experiment: Axonal outgrowth from dissociated goldfish retinal ganglion cell cultures; conditions: for decline of AF-1 activity: n.s.; for effect of reducing agents on outgrowth stimulated by AF-1: a-tocopherol 30 μM, MEG 100 μM
Experimental: Axogenesis factor-1 was obtained essentially as described in Schwalb et al., 1995, and Schwalb et al., Neuroscience, 72: 901-910, 1996, the contents of which are incorporated herein by reference). Optic nerves were dissected, cut into fragments 1 mm in length, and incubated in a ratio of 6 nerves in 3 ml of either L-15 media (Gibco BRL) or phosphate-buffered saline (Gibco BRL). After 3-4 hours, nerve fragments were removed by filtering through a 0.22 μm pore low protein-binding filter (Gelman). A low molecular weight fraction of the conditioned media was prepared by ultrafiltration, first with a molecular weight cut-off of 3 kDa (Amicon Centriprep-3), then with a cut-off of 1 kDa (Filtron). The filtrate was used as a positive control at 20-30% final concentration. […] Goldfish (Comet Variety, Mt. Parnell Fisheries, Mt. Parnell Pa.), 6-10 cm in length, were dark-adapted and their retinas dissected. Retinas were incubated with papain (20 μg/ml), activated with cysteine (2.8 mM) for 30 minutes at room temperature, then dissociated by gentle trituration. […] Neuroscience 15: 5514-5625, 1995, the contents of which are incorporated herein by reference). […] Cells were maintained at 21° C. in serum free, defined media containing insulin, selenium, transferrin, bovine serum albumin, catalase, superoxide dismutase, hormones, and vitamins in Eagle's L-15 media as described in Schwalb et al., 1995, the contents of which are incorporated herein by reference). Dissociated cultures of purified rat retinal ganglion cells were prepared by immunopanning as described in Barres et al., Neuron, 1: 791-803, 1988, the contents of which are incorporated herein by reference). In brief, retinas from postnatal day 8 Sparague-Dawley rats were dissociated using papain activated with cysteine. Macrophages were removed by incubation with an anti-rat macrophage antibody (Accurate) followed by immunopanning with an anti-rabbit 1gG antibody. Ganglion cells were isolated by immunopanning with an anti-Thy-1 antibody, then dislodged with trypsin for use in low-density cultures. Rat retinal ganglion cells were maintained at 37° C. in a CO2 incubator using the same medium described above except for the presence of 30 mM bicarbonate. In a typical experiment, samples were plated in quadruplicate in randomized positions of a 24-well plate and the code was concealed to ensure that growth was evaluated in a blinded fashion. Each experiment contained 4 wells of a negative control (media plus supplements only) and 4 wells of a positive control (a standardized AF-1 sample of known activity). […] After the completion of counting, the code was broken, the data tabulated, and means and standard errors were calculated for the 4 replicate wells of each sample using Cricket Graph (CA Associates, […].). […] Group comparisons were based upon pairwise, 2-tailed Student's t-tests. Several independent experiments were performed for most samples, as noted in the figure legends. […] Cell survival is reported as the number of viable RGCs per high-powered field.

[2] = test system: goldfish retinal ganglion cells; experiment: Cell survival in goldfish retinal ganglion cell cultures (viable RGCs per field)
Experimental: Goldfish (Comet Variety, Mt. Parnell Fisheries, Mt. Parnell Pa.), 6-10 cm in length, were dark-adapted and their retinas dissected. Retinas were incubated with papain (20 μg/ml), activated with cysteine (2.8 mM) for 30 minutes at room temperature, then dissociated by gentle trituration. […] Low density cultures were achieved by plating c. 5×10^3 cells/well into poly L-lysine coated, 24-well culture dishes (Costar, Cambridge, Mass.). […] In brief, retinas from postnatal day 8 Sparague-Dawley rats were dissociated using papain activated with cysteine. Macrophages were removed by incubation with an anti-rat macrophage antibody (Accurate) followed by immunopanning with an anti-rabbit 1gG antibody. Ganglion cells were isolated by immunopanning with an anti-Thy-1 antibody, then dislodged with trypsin for use in low-density cultures. Rat retinal ganglion cells were maintained at 37° C. in a CO2 incubator using the same medium described above except for the presence of 30 mM bicarbonate.
In a typical experiment, samples were plated in quadruplicate in randomized positions of a 24-well plate and the code was concealed to ensure that growth was evaluated in a blinded fashion. Each experiment contained 4 wells of a negative control (media plus supplements only) and 4 wells of a positive control (a standardized AF-1 sample of known activity). Growth and survival were assessed after 6 days for all ganglion cells in 25 consecutive fields of each well using phase contrast microscopy at 400× magnification (c. 150 ganglion cells counted per well). […] After the completion of counting, the code was broken, the data tabulated, and means and standard errors were calculated for the 4 replicate wells of each sample using Cricket Graph (CA Associates, Islandia, N.Y.). Data were normalized by subtracting the growth in the negative controls (usually 4-5%) and dividing by the net growth in the positive controls. […] Group comparisons were based upon pairwise, 2-tailed Student's t-tests. Several independent experiments were performed for most samples, as noted in the figure legends. In some cases, cell viability was assessed with the dye 5,6-carboxyfluorescein diacetate. Cell survival is reported as the number of viable RGCs per high-powered field.

[3] = test system: rat retinal ganglion cells; experiment: Axonal outgrowth from purified rat retinal ganglion cells; conditions: 6-TG 10 μM, rat RGCs
Experimental: Goldfish (Comet Variety, Mt. Parnell Fisheries, Mt. Parnell Pa.), 6-10 cm in length, were dark-adapted and their retinas dissected. Retinas were incubated with papain (20 μg/ml), activated with cysteine (2.8 mM) for 30 minutes at room temperature, then dissociated by gentle trituration. Repeated cycles of trituration and sedimentation yielded cultures nearly homogeneous in ganglion cells, which are readily identified by their oval shape, phase-bright appearance, size (diameter 15 μm), and extension of only 1 or 2 neurites of uniform caliber; these criteria have been verified by retrograde labeling (see Schwartz & Agranoff, Brain Res. 206: 331-343, 1981 and Schwalb et al., J. Neuroscience 15: 5514-5625, 1995, the contents of which are incorporated herein by reference). Low density cultures were achieved by plating c. 5×10^3 cells/well into poly L-lysine coated, 24-well culture dishes (Costar, Cambridge, Mass.). Cells were maintained at 21° C. in serum free, defined media containing insulin, selenium, transferrin, bovine serum albumin, catalase, superoxide dismutase, hormones, and vitamins in Eagle's L-15 media as described in Schwalb et al., 1995, the contents of which are incorporated herein by reference). Dissociated cultures of purified rat retinal ganglion cells were prepared by immunopanning as described in Barres et al., Neuron, 1: 791-803, 1988, the contents of which are incorporated herein by reference). In brief, retinas from postnatal day 8 Sparague-Dawley rats were dissociated using papain activated with cysteine. Macrophages were removed by incubation with an anti-rat macrophage antibody (Accurate) followed by immunopanning with an anti-rabbit 1gG antibody. Ganglion cells were isolated by immunopanning with an anti-Thy-1 antibody, then dislodged with trypsin for use in low-density cultures. Rat retinal ganglion cells were maintained at 37° C. in a CO2 incubator using the same medium described above except for the presence of 30 mM bicarbonate.
In a typical experiment, samples were plated in quadruplicate in randomized positions of a 24-well plate and the code was concealed to ensure that growth was evaluated in a blinded fashion. Each experiment contained 4 wells of a negative control (media plus supplements only) and 4 wells of a positive control (a standardized AF-1 sample of known activity). Growth and survival were assessed after 6 days for all ganglion cells in 25 consecutive fields of each well using phase contrast microscopy at 400× magnification (c. 150 ganglion cells counted per well). Extension of a process 5 cell diameters in length was the criterion for growth, since it clearly distinguishes stimulated cells from negative controls (see Schwalb et al., 1995). After the completion of counting, the code was broken, the data tabulated, and means and standard errors were calculated for the 4 replicate wells of each sample using Cricket Graph (CA Associates, Islandia, N.Y.). Data were normalized by subtracting the growth in the negative controls (usually 4-5%) and dividing by the net growth in the positive controls. In the most favorable experiments, more than 50% of retinal ganglion cells (RGCs) exposed to AF-1 extended axons 5 cell diameters in length after 6 days. Group comparisons were based upon pairwise, 2-tailed Student's t-tests. Several independent experiments were performed for most samples, as noted in the figure legends. In some cases, cell viability was assessed with the dye 5,6-carboxyfluorescein diacetate. […]

[4] = DCF alone, with AF-1, or with guanosine

## 8-bromoadenosine-3′,5′ cyclic monophosphorothioate [Sp-8-Br-cAMPS]
[1]; concentrations up to 1 mM
  axonal outgrowth activity: inactive

## CCCCCC[C@@H]([C@@H](C)O)n1cnc2c(N)ncnc21 (racemic) [EHNA, erythro-9-(2-hydroxy-3-nonyl) adenine]
[1]; 10 μM EHNA, 100 μM adenosine
  effect on adenosine-stimulated outgrowth: rendered adenosine (100 μM) ineffective in stimulating outgrowth
[1]; EHNA 10 μM
  reduction of growth stimulated by guanosine or AF-1: about 50%
[2]
  cell survival: not altering cell survival

## Nc1nc(Cl)nc2c1ncn2[C@@H]1O[C@H](CO)[C@@H](O)[C@H]1O [2-CA, 2-chloroadenosine]
[1]; 100 μM, FIG. 2
  growth relative to baseline: diminishes growth below baseline levels
[1]; 10 and 100 μM, 3 out of 3 experiments
  growth relative to baseline: small but significant decrease in growth below the baseline

## Nc1nc2nc[nH]c2c(=S)[nH]1 [6-TG, 6-thioguanine]
[1]; 6-TG 10 μM
  effect on growth stimulated by 100 μM inosine or 100 μM guanosine: no effect; also recorded: unaffected
  effect on growth stimulated by AF-1: blocked all growth stimulated by AF-1; also recorded: suppressed growth induced by AF-1 below baseline; also recorded: completely blocked
[3]
  effect on CNTF-induced outgrowth: blocked CNTF-induced outgrowth; also recorded: inhibited

## Nc1nc2c(nc(Br)n2[C@@H]2O[C@@H]3COP(=O)(O)O[C@H]3[C@H]2O)c(=O)[nH]1 [8-Br cGMP, 8-bromo cyclic GMP]
[1]; tested at concentrations between 1-100 μM
  axonal outgrowth activity: Neither dibutyryl cAMP (dBcAMP) nor 8-Br cGMP showed any activity

## Cn1c(=O)c2[nH]c(-c3ccc(S(=O)(=O)O)cc3)nc2n(C)c1=O [8-PST, 8-p-(sulfophenyltheophylline)]
[1]; 8-PST at 20 μM
  effect on outgrowth stimulated by adenosine, guanosine, or AF-1: no effect
[1]; addition of 20 pM 8-PST
  effect on outgrowth stimulated by AF-1, 100 μM adenosine or 100 μM guanosine: unaffected

## Nc1nc2c(nc(Sc3ccc(Cl)cc3)n2[C@@H]2O[C@@H]3COP(=O)(O)O[C@H]3[C@H]2O)c(=O)[nH]1 [8-pcpt-cGMP, 8-(4-chlorophenylthio) guanosine-3′,5′-cyclic monophosphate]
[1]; concentrations up to 1 mM
  axonal outgrowth activity: inactive

## Nc1ncnc2c1ncn2[C@@H]1O[C@H](COP(=O)(O)OP(=O)(O)O)[C@@H](O)[C@H]1O [ADP, adenosine diphosphate]
[1]; at 100 μM
  axonal outgrowth activity: marginally significant level of activity

## Nc1ncnc2c1ncn2[C@@H]1O[C@H](COP(=O)(O)O)[C@@H](O)[C@H]1O [AMP, adenosine 5′ monophosphate]
[1]; at 100 μM
  axonal outgrowth activity: marginally significant level of activity

## Nc1ncnc2c1ncn2[C@@H]1O[C@H](COP(=O)(O)OP(=O)(O)OP(=O)(O)O)[C@@H](O)[C@H]1O [ATP, adenosine triphosphate]
[1]; at 10 μM
  axonal outgrowth activity: marginally significant level of activity
[1]; at 100 μM
  axonal outgrowth activity: not at 100 μM

## OC[C@H]1O[C@@H](n2cnc3c2NC=NC[C@H]3O)C[C@@H]1O [DCF, deoxycoformycin]
[1]; [4]
  effects of DCF on outgrowth: did not occur
[2]; [4]
  effects of DCF on survival: did not occur

## O=[N+]([O-])c1ccc(CSc2ncnc3c2ncn3C2OC(CO)C(O)C2O)cc1 (centres unmarked) [NBTI, nitrobenzylthio inosine]
[1]; NBTI 20 μM
  effect on the activity of AF-1: no effect
[1]; NBTI 20 μM, 50 μM inosine
  loss of activity of inosine: 86%
[1]; NBTI 20 μM, 100 μM guanosine
  loss of activity of guanosine: 93%
[1]; NBTI 20 μM, dipyridamole 10 μM
  decline of AF-1 activity: 10%

## Cc1c(C)c2c(c(C)c1O)CC[C@@](C)(CCC[C@H](C)CCC[C@H](C)CCCC(C)C)O2 [a-tocopherol]
[1]
  effect of reducing agents on outgrowth stimulated by AF-1: no effect; also recorded: not mimicked

## OCCN(CCO)c1nc(N2CCCCC2)c2nc(N(CCO)CCO)nc(N3CCCCC3)c2n1 [dipyridamole]
[1]; 6-TG 10 μM, NBTI 20 μM, dipyridamole 10 μM
  effect of transport inhibitors on 6-TG blockade of AF-1-stimulated outgrowth: failed to prevent 6-TG from blocking outgrowth; also recorded: not restored
[1]; NBTI 20 μM, dipyridamole 10 μM
  decline of AF-1 activity: 25%

## O=c1[nH]cnc2nc[nH]c12 [hypoxanthine]
[1]; dose-response, FIG. 4
  axonal outgrowth activity: no activity at all
[1]; dose-response, FIG. 4, listed as Hypoxanthine
  axonal outgrowth activity: inactive

## glutathione a-methyl ester [MEG]
[1]
  effect of reducing agents on outgrowth stimulated by AF-1: no effect; also recorded: not mimicked
